Patent publication US9718813B2, “Imidazolin-5-one derivative useful as FASN inhibitors for the treatment of cancer” (Janssen Pharmaceutica, NV, priority 2013, dated 2017)

The compounds below were run against hFASN enzyme (full length) (Homo sapiens (Human), UniProt P49327) (assay: Fatty Acid Synthase (FASN) Inhibition Scintillation Proximity Assay). Conditions: 3H-acetyl-CoA and malonyl-CoA substrates, SPA, mean if tested more than once.
Type: biochemical
Experimental: In this assay, inhibition of FASN activity is measured using ^3H-acetyl-CoA and malonyl-CoA as substrates. ^3H-Acetyl CoA is converted to ^3H-palmitate through a series of reactions by the FASN protein, which contains 7 functional domains and carries out 7 enzymatic reactions to ultimately produce ^3H-palmitate. The assay principle is based upon the fact that ^3H-acetyl-CoA is hydrophilic and the end product, ^3H-palmitate is hydrophobic.
10 μL assay buffer (100 mM KH2PO4 pH 7.5, 1 mM DTT) (20 μL in blanks) was added to a 384-well white Opti Plate plate (Perkin Elmer). 0.9 μL test compound (at concentrations of 30 μM, 10 μM, 3 μM, 1 μM, 0.30 μM, 0.10 μM, 0.03 μM and 0.01 μM)/DMSO and 10 μL hFASN enzyme (full length, 300 ng, purified in house) or 10 μL assay buffer was added to the wells. […] The reaction was stopped by adding 20 μL Streptavidin coupled imaging beads (25 mg/ml). After incubation for 30 minutes at room temperature in the dark, the 384 well plate was centrifuged at 1500 rpm for 3 minutes and was measured after at least 24 hrs by the LEADseeker™, measuring emission using a 610±20 nm pass filter.
Raw data generated by the instrument were normalized to % Controlmin values, which were calculated as: % Controlmin=100*(x−mLC)/(mHC−mLC)
where mLC and mHC were the means of the low control wells and high control wells on the plate, after manual exclusion of outliers. A plot of Controlmin versus test compound concentration was fitted to a 4-parameter logistic curve using a non-linear least squares regression method.

Chain of hFASN enzyme (full length) (P49327 whole entry): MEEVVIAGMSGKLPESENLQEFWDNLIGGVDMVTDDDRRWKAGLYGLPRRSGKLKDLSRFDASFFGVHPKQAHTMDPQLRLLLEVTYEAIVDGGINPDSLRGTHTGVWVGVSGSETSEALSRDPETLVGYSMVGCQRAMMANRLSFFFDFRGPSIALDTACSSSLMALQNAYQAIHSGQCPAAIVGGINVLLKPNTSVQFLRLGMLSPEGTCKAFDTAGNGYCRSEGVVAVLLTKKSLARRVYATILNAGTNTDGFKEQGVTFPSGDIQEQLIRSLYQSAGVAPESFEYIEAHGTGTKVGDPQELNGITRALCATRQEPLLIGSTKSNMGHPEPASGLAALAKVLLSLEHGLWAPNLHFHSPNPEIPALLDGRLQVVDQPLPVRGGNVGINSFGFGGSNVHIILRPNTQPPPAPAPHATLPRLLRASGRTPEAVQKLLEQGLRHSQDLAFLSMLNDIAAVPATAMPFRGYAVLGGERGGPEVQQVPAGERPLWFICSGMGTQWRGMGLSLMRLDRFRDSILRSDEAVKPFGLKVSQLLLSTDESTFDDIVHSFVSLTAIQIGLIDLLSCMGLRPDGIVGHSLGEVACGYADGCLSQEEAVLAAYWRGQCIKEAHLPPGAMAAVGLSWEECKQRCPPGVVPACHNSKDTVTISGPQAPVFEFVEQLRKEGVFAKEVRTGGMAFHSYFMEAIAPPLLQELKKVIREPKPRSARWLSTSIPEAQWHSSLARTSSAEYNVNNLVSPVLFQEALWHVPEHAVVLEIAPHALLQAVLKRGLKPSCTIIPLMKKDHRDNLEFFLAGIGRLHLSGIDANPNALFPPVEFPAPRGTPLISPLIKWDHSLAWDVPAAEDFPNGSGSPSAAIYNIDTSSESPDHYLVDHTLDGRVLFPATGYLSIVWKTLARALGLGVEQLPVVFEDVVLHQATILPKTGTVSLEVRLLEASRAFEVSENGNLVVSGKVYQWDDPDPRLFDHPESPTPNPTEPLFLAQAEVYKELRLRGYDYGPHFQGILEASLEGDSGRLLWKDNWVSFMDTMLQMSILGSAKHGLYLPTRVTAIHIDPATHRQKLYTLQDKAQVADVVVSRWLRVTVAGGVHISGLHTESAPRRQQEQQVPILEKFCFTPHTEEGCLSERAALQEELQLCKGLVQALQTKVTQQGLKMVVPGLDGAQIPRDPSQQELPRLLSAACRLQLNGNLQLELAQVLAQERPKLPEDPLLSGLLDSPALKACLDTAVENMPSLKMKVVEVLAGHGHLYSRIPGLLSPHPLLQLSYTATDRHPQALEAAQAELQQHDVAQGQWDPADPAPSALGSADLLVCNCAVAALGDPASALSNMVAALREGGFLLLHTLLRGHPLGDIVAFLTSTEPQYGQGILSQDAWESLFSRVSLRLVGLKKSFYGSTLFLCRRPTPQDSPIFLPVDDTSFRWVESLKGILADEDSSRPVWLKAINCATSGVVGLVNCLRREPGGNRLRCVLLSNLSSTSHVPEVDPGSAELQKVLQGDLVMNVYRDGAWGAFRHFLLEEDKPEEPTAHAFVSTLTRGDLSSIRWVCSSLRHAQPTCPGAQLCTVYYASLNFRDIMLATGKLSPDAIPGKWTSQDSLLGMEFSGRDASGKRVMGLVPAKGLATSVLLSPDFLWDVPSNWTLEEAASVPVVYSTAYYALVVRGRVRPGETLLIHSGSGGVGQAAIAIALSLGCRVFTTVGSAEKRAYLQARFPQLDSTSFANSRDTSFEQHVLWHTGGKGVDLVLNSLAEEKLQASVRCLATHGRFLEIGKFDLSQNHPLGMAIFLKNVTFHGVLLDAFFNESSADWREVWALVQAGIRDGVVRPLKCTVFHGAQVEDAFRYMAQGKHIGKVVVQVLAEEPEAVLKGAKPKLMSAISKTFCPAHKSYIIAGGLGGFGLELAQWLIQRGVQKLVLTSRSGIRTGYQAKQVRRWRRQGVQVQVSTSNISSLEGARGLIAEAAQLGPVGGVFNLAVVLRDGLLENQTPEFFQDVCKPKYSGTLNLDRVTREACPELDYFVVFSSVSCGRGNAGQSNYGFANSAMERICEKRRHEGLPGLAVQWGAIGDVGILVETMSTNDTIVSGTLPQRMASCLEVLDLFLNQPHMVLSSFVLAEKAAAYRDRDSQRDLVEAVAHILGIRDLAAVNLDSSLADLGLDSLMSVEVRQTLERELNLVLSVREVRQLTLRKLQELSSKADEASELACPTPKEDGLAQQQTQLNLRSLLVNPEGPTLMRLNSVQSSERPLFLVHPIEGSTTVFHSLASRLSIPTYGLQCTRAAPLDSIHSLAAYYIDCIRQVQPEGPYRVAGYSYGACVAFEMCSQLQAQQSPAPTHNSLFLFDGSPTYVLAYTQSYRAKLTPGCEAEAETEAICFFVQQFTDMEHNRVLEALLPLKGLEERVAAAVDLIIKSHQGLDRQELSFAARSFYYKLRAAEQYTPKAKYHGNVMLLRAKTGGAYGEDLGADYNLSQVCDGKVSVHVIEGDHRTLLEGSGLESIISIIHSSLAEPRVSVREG

Human FASN pIC50 | Compound
7.39 | Cc1cc(-c2ccc3cc(C#N)ccc3c2)ccc1C1=NC(C)(C)C(=O)N1CC1CN(C(=O)C2CC2)C1 [Compound 96, 6-(4-(1-((1-(cyclopropanecarbonyl)azetidin-3-yl)methyl)-4,4-dimethyl-5-oxo-4,5-dihydro-1H-imidazol-2-yl)-3-methylphenyl)-2-naphthonitrile]
7.00 | Cn1cnc2cc(-c3ccc(C4=NC(C)(C)C(=O)N4CC4CN(C(=O)C5(C)CC5)C4)c(F)c3)ccc21 [Compound 93, 2-(2-fluoro-4-(1-methyl-1H-benzo[d]imidazol-5-yl)phenyl)-4,4-dimethyl-1-((1-(1-methylcyclopropanecarbonyl)azetidin-3-yl)methyl)-1H-imidazol-5(4H)-one]
7.04 | Cc1cc(-c2ccc3c(c2)ncn3C)ccc1C1=NC(C)(C)C(=O)N1C[C@@H]1CCN(C(=O)C2(O)CC2)C1 [Compound 92, (R)-1-((1-(1-hydroxycyclopropanecarbonyl)pyrrolidin-3-yl)methyl)-4,4-dimethyl-2-(2-methyl-4-(1-methyl-1H-benzo[d]imidazol-5-yl)phenyl)-1H-imidazol-5(4H)-one]
5.86 | CC1(C)N=C(c2ccc(-c3ccc4ncccc4c3)cc2F)N(C[C@@H]2CCN(C(=O)C3CC3)C2)C1=O [Compound 37, (R)-1-((1-(cyclopropanecarbonyl)pyrrolidin-3-yl)methyl)-2-(2-fluoro-4-(quinolin-6-yl)phenyl)-4,4-dimethyl-1H-imidazol-5(4H)-one]
5.67 | CC1(C)N=C(c2ccc(-c3ccc4ncccc4c3)cc2)N(C[C@@H]2CCN(C(=O)C3CC3)C2)C1=O [Compound 64, (R)-1-((1-(cyclopropanecarbonyl)pyrrolidin-3-yl)methyl)-4,4-dimethyl-2-(4-(quinolin-6-yl)phenyl)-1H-imidazol-5(4H)-one]
~5.37 | CC1(C)N=C(c2ccc(-c3nc4ccccc4o3)cc2)N(CC2CN(C(=O)C3CC3)C2)C1=O [Compound 12, 2-(4-(benzo[d]oxazol-2-yl)phenyl)-1-((1-(cyclopropanecarbonyl)azetidin-3-yl)methyl)-4,4-dimethyl-1H-imidazol-5(4H)-one]
~5.79 | CC1(C)N=C(c2ccc(-c3c[nH]c4ccccc34)cc2)N(CC2CN(C(=O)C3CC3)C2)C1=O [Compound 59, 2-(4-(1H-indol-3-yl)phenyl)-1-((1-(cyclopropanecarbonyl)azetidin-3-yl)methyl)-4,4-dimethyl-1H-imidazol-5(4H)-one]
6.37 | Cc1cc(-c2ccc3c(c2)ncn3C)ccc1C1=NC(C)(C)C(=O)N1CC1CN(C(=O)C2(O)CC2)C1 [Compound 91, 1-((1-(1-hydroxycyclopropanecarbonyl)azetidin-3-yl)methyl)-4,4-dimethyl-2-(2-methyl-4-(1-methyl-1H-benzo[d]imidazol-5-yl)phenyl)-1H-imidazol-5(4H)-one]
5.05 | CC1(C)N=C(c2ccc(-c3ccc4ncccc4c3)cc2F)N(CC2CN(C(=O)C3CC3)C2)C1=O [Compound 38, 1-((1-(cyclopropanecarbonyl)azetidin-3-yl)methyl)-2-(2-fluoro-4-(quinolin-6-yl)phenyl)-4,4-dimethyl-1H-imidazol-5(4H)-one]
7.10 | Cn1cnc2cc(-c3ccc(C4=NC(C)(C)C(=O)N4C[C@@H]4CCN(C(=O)C5(C)CC5)C4)c(F)c3)ccc21 [Compound 90, (R)-2-(2-fluoro-4-(1-methyl-1H-benzo[d]imidazol-5-yl)phenyl)-4,4-dimethyl-1-((1-(1-methylcyclopropanecarbonyl)pyrrolidin-3-yl)methyl)-1H-imidazol-5(4H)-one]
6.00 | CC1(C)N=C(c2ccc(-c3n[nH]c4ccccc34)cc2F)N(CC2CN(C(=O)C3CC3)C2)C1=O [Compound 58, 1-((1-(cyclopropanecarbonyl)azetidin-3-yl)methyl)-2-(2-fluoro-4-(1H-indazol-3-yl)phenyl)-4,4-dimethyl-1H-imidazol-5(4H)-one]
~5.19 | CC1(C)N=C(c2ccc(-c3n[nH]c4ccccc34)cc2)N(C[C@@H]2CCN(C(=O)C3CC3)C2)C1=O [Compound 35, (R)-2-(4-(1H-indazol-3-yl)phenyl)-1-((1-(cyclopropanecarbonyl)pyrrolidin-3-yl)methyl)-4,4-dimethyl-1H-imidazol-5(4H)-one]
5.38 | CC1(C)N=C(c2ccc(-c3cnc4ccccc4c3)cc2)N(CC2CN(C(=O)C3CC3)C2)C1=O [Compound 19, 1-((1-(cyclopropanecarbonyl)azetidin-3-yl)methyl)-4,4-dimethyl-2-(4-(quinolin-3-yl)phenyl)-1H-imidazol-5(4H)-one]
7.52 | Cn1cc(-c2ccc(-c3ccc(C4=NC(C)(C)C(=O)N4C[C@@H]4CCN(C(=O)C5(O)CC5)C4)c(F)c3)cc2)cn1 [Compound 95, (R)-2-(3-fluoro-4′-(1-methyl-1H-pyrazol-4-yl)-[1,1′-biphenyl]-4-yl)-1-((1-(1-hydroxycyclopropanecarbonyl)pyrrolidin-3-yl)methyl)-4,4-dimethyl-1H-imidazol-5(4H)-one]
5.26 | CC1(C)N=C(c2ccc(-c3n[nH]c4ccccc34)cc2)N(CC2CN(C(=O)C3CC3)C2)C1=O [Compound 99, 2-(4-(1H-indazol-3-yl)phenyl)-1-((1-(cyclopropanecarbonyl)azetidin-3-yl)methyl)-4,4-dimethyl-1H-imidazol-5(4H)-one]
6.49 | Cn1cnc2cc(-c3ccc(C4=NC(C)(C)C(=O)N4CC4CN(C(=O)C5(O)CC5)C4)c(F)c3)ccc21 [Compound 94, 2-(2-fluoro-4-(1-methyl-1H-benzo[d]imidazol-5-yl)phenyl)-1-((1-(1-hydroxycyclopropanecarbonyl)azetidin-3-yl)methyl)-4,4-dimethyl-1H-imidazol-5(4H)-one]
5.43 | CC1(C)N=C(c2ccc(-c3ccc4cncnc4c3)cc2)N(CC2CN(C(=O)C3CC3)C2)C1=O [Compound 36, 1-((1-(cyclopropanecarbonyl)azetidin-3-yl)methyl)-4,4-dimethyl-2-(4-(quinazolin-7-yl)phenyl)-1H-imidazol-5(4H)-one]
7.22 | Cn1cnc2cc(-c3ccc(C4=NC(C)(C)C(=O)N4C[C@@H]4CCN(C(=O)C5(O)CC5)C4)c(F)c3)ccc21 [Compound 89, (R)-2-(2-fluoro-4-(1-methyl-1H-benzo[d]imidazol-5-yl)phenyl)-1-((1-(1-hydroxycyclopropanecarbonyl)pyrrolidin-3-yl)methyl)-4,4-dimethyl-1H-imidazol-5(4H)-one]
5.87 | CC1(C)N=C(c2ccc(-c3cccc4cnccc34)cc2F)N(CC2CN(C(=O)C3CC3)C2)C1=O [Compound 21, 1-((1-(cyclopropanecarbonyl)azetidin-3-yl)methyl)-2-(2-fluoro-4-(isoquinolin-5-yl)phenyl)-4,4-dimethyl-1H-imidazol-5(4H)-one]
7.07 | Cn1ncc2cc(-c3ccc(C4=NC(C)(C)C(=O)N4C[C@@H]4CCN(C(=O)C5(O)CC5)C4)c(F)c3)ccc21 [Compound 76, (R)-2-(2-fluoro-4-(1-methyl-1H-indazol-5-yl)phenyl)-1-((1-(1-hydroxycyclopropanecarbonyl)pyrrolidin-3-yl)methyl)-4,4-dimethyl-1H-imidazol-5(4H)-one]
7.69 | CC1(C)N=C(c2ccc(-c3ccc4cc(F)ccc4c3)cc2F)N(C[C@@H]2CCN(C(=O)C3(O)CC3)C2)C1=O [Compound 88, (R)-2-(2-fluoro-4-(6-fluoronaphthalen-2-yl)phenyl)-1-((1-(1-hydroxycyclopropanecarbonyl)pyrrolidin-3-yl)methyl)-4,4-dimethyl-1H-imidazol-5(4H)-one]
~5.25 | CC1(C)N=C(c2ccc(-c3cccc4ncccc34)cc2)N(CC2CN(C(=O)C3CC3)C2)C1=O [Compound 18, 1-((1-(cyclopropanecarbonyl)azetidin-3-yl)methyl)-4,4-dimethyl-2-(4-(quinolin-5-yl)phenyl)-1H-imidazol-5(4H)-one]
7.26 | CC1(C(=O)N2CC[C@@H](CN3C(=O)C(C)(C)N=C3c3ccc(-c4ccc5cc(F)ccc5c4)cc3F)C2)CC1 [Compound 75, (R)-2-(2-fluoro-4-(6-fluoronaphthalen-2-yl)phenyl)-4,4-dimethyl-1-((1-(1-methylcyclopropanecarbonyl)pyrrolidin-3-yl)methyl)-1H-imidazol-5(4H)-one]

Same assay, conditions: 3H-acetyl-CoA and malonyl-CoA substrates, SPA, mean if tested more than once, read-out: Human FASN pIC50 (converted)

IC50 [µM] | Compound
> 10 | CC1(C)N=C(c2ccc(-c3ccc4ncccc4c3)cc2)N(CC2CN(C(=O)C3CC3)C2)C1=O [Compound 98, 1-((1-(cyclopropanecarbonyl)azetidin-3-yl)methyl)-4,4-dimethyl-2-(4-(quinolin-6-yl)phenyl)-1H-imidazol-5(4H)-one]
